The source of these data is PMC9935382, “Sorting nexin-dependent therapeutic targeting of oncogenic epidermal growth factor receptor” (Cancer Gene Therapy, 2022).

Entries after “also recorded” stand apart in the source; their conditions may differ.

One series concerns BT20 cells. It counts as cell-based. The following applies: 3 days, MTT. As for the experimental part:
(§1) 2 × 10^3 cells were plated per well in a 96 well plate and left to adhere overnight. The following day, drug treatments were started and continued for 3 days. To measure the viability of the remaining cell population, 10% 3-(4,5-dimethylthiazol-2-yl)-2,5-diphenyltetrazolium (MTT) in media was added and incubated for 2 hours and conversion of MTT to formazan at 540 nm using a biotech Synergy LX plate reader.
(§2) A–G Cells were plated in a 96-well plate at 2000 cells per well. […] Cell viability was then measured with an MTT assay, viability of treated cells were compared with the vehicle control. H MDA-MB-468 cells were plated and incubated+/− IPTG for 2 days prior to drug treatment to induce expression of an EGFR-targeted shRNA.
(§3) Supplementary Figure 1. A. BT20 triple negative breast cancer cells were treated with SNX1.1, 1.2, or 1.3 for 3 days and their viability was measured via MTT analysis. B. CHO cells were treated with PTD4 or SNX1.3 for 3 days and their viability was measured via MTT analysis.

Series [1] in a line: Body weight and toxicity in WAP-TGFα mice. It is filed as in vivo. The conditions noted are these: 10 μg/g IV 3X/week, up to 4 weeks. From the text:
The transgenic mouse line WAP-TGFα (The Jackson Laboratory; Tg(WapTgfa)215Bri) were back crossed to C57BL/6 J background (N8). WAP-TGFα heterozygous males were bred with C57BL/6 J females to generate study animals and offspring were genotyped using primers against the WAP-TGFα transgene. WAP-TGFα heterozygous females were housed continuously with C57Bl/6 J males to induce pregnancy, resulting in transgene expression. […] To ensure randomized treatment arms we added mice to alternating treatment arms as they developed tumors, starting with the control cPTD4 arm. When a second mouse from the same litter developed a tumor, that animal was added to the opposite arm from its litter mate. The researchers were not blinded to the treatment arms. […] Once entered, mice were weighed, tumors measured, and injections given intravenously at 10 μg/g body weight 3x/week for 4 weeks. […] Upon sacrifice, all tumors were collected and fixed in 10% formalin; a portion of each tumor was homogenized in tissue lysis buffer to form tissue protein lysates. Tissues were paraffin-embedded and sectioned by the Tissue Acquisition and Cell Molecular Analysis Shared Resource at the University of Arizona Cancer Center. […]
When tumors reached >100 mm^3, IV injections began at 3X/week, 10 μg/g body weight and tumors were measured 3X/week with calipers. […]
Supplementary Figure 2. […] B. Tumors were measured with calipers 3X/week. […]

The test system of a further series is H1975 cells. The series can be described thus: MTT cell viability, H1975. The following applies: EGFR driver mutation T790M, 3 days. It is filed as cell-based. The protocol: as §1, §2
In another series the test system is T47D cells. The series can be described thus: MTT cell viability, T47D. It is filed as cell-based. The conditions noted are these: 3 days, ER+ breast cancer line. As for the experimental part: as §1, §2
Series [2] deals with nuclear EGFR in MDA-MB-468 cells. The series is described as follows: Nuclear EGFR by subcellular fractionation. The conditions noted are these: serum starved, 20 ng/mL EGF and peptide, 2 h; subcellular fractionation and immunoblot. It counts as cell-based. The protocol: Cells were trypsinized and washed with PBS, followed by centrifugation at 100 g (4 °C) for 5 minutes. The cell pellet was resuspended in ice-cold cytosolic fraction buffer (150 mM NaCl, 50 mM HEPES pH 7.4, 25 ug/mL digitonin, with Complete protease inhibitors (Roche) and phosphatase inhibitors (2.0 mM sodium orthovanadate, 10.0 μM ammonium molybdate and 10.0 mM sodium fluoride) and tumbled at 4 °C for 10 minutes, followed by centrifuged at 2000 g, 4 °C for 10 minutes and the cytosolic fraction transferred retained for analysis as the cytosolic fraction. The pellet was then washed twice in ice-cold PBS, resuspended in membrane fraction buffer (150 mM NaCl, 50 mM HEPES pH 7.4, 1% NP-40, with protease and phosphatase inhibitors) and incubated on ice for 30 minutes. […]
Lysates were prepared as described, protein concentrations determined by BCA assay (Pierce) and resolved via standard SDS-PAGE [18]. Gels were transferred to either PVDF (Immobilon P or Immobilon FL) membrane and probed with the indicated antibodies and analyzed by either HRP-linked secondaries (Pierce) or IRDye secondaries (Li-Cor), followed by development in Dura Signal (Pierce) or IR (Licor). […]
Cells were then fractionated and verified by HSP90 cytosolic protein, Bap31 membrane protein, or HDAC nuclear protein. […] After the second week, the number of secondary mammospheres were counted.
(In western blotting, separated proteins are transferred to a membrane and probed.)

In another series the test system is CHO cells. The series can be described thus: MTT cell viability, CHO. The following applies: CHO cells lack EGFR expression, 3 days. It counts as cell-based, Chinese hamster. As for the experimental part: as §1, §2, §3
In series [3] the target is T1, EGFR kinase domain (residues 672–998) (Homo sapiens, UniProt P00533).
T1 construct: baculovirus insect cell expression system (residues 672–998 with N-terminal His-tag followed by TEV cleavage site); made in house; host or cells: Sf9 insect cells (Bac-to-Bac baculovirus, pFastBacHT)
T1 sequence (P00533 696-1022): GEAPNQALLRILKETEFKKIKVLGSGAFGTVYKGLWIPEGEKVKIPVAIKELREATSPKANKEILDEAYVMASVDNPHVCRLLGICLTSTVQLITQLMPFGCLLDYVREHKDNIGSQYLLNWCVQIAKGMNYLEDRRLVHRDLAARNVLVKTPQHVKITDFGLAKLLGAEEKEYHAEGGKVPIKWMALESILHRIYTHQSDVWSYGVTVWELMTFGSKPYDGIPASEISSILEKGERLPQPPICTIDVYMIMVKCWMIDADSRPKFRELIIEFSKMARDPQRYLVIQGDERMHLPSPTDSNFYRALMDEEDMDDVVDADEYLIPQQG
The series can be described thus: Microscale thermophoresis (MST) binding to EGFRkin. The following applies: direct binding, MST / BLI. (In MST a laser heats a spot of the sample, and binding alters the fluorescence response.)
Protocol: Briefly pFastBacHT plasmid containing the cDNA of EGFR kinase domain with N-terminal His-tag was transformed into DH10Bac E. coli to generate bacmid DNA. P1 virus was generated by transfecting 2.0 mL of sf9 cells at 1.0 million cells/ml density with the purified bacmid DNA (200–3000 ng/μL). The P1 virus was harvested after 5–7 days following transfection. The P1 virus was diluted 100-fold into an sf9 cell culture at a density of 2.0 million cells/ml and cultured for 3 days. Supernatant containing the P2 virus was collected by centrifugation and diluted 40-fold into 1.0 L of sf9 cells at a density of 2.0 million cells/ml. After 2.5–3 days, cell pellets were harvested by centrifugation at 3500 x g at 4 °C for 20 min, and flash frozen in liquid nitrogen prior to storage at −80 °C.
To purify the EGFR kinase domain, Sf9 cell pellets (~10 g) was thawed on ice and homogenized with 2 passages on an EmulsiFlex-C5 (Avestin) in 50 mL of lysis buffer (50 mM Tris pH 7.5, 600 mM NaCl, 1 mM EDTA, 1 mM TCEP, protease inhibitors, DNAase, and 10% Glycerol). The lysate was centrifugated and supernatant was collected and loaded onto a 1.0 mL HisTrap FF column (GE) at a flow rate of 1.0 ml/min. Following loading, the column was washed with 20 column volumes of wash buffer (50 mM Tris pH 7.5, 600 mM NaCl, 20 mM Imidazole, 1 mM TCEP, and 10% Glycerol) and eluted with a linear gradient of elution buffers containing 20 and 300 mM imidazole. Fractions containing the EGFR kinase domain proteins were combined and concentrated to less than 1.0 mL. The concentrated proteins were loaded onto a Superdex 200 10/300 GL column (GE) equilibrated in buffer (20 mM Tris pH 7.5, 100 mM NaCl) for further purification. The purified proteins were concentrated, flash frozen in liquid nitrogen, and stored at −80 °C.
MST experiments were carried out using a Monolith NT.115 pico instrument (NanoTemper Technologies, Munich Germany). […] Kd values were derived from the concentration-dependent changes in normalized fluorescence (Fnorm). Data were analyzed using NanoTemper MO. […]

Regarding `CC[C@H](C)[C@H](NC(=O)[C@@H](NC(=O)[C@H](Cc1c[nH]cn1)NC(=O)[C@H](CC(N)=O)NC(=O)[C@H](CCCCN)NC(=O)[C@H](C)NC(=O)[C@H](CCCNC(=N)N)NC(=O)[C@H](C)NC(=O)[C@H](CCC(N)=O)NC(=O)[C@H](CCCNC(=N)N)NC(=O)[C@H](C)NC(=O)[C@H](C)NC(=O)[C@H](C)NC(=O)[C@H](CCCNC(=N)N)NC(=O)[C@H](C)NC(=O)[C@H](Cc1ccc(O)cc1)NC(C)=O)C(C)C)C(=O)N[C@@H](CCCCN)C(=O)N[C@@H](Cc1ccc(O)cc1)C(=O)N[C@@H](CC(C)C)C(=O)N[C@@H](CCC(=O)O)C(=O)N[C@H](C(=O)N[C@@H](CC(C)C)C(=O)N[C@@H](CC(C)C)C(=O)N[C@@H](Cc1ccc(O)cc1)C(=O)N[C@@H](CO)C(=O)N[C@@H](CCC(N)=O)C(=O)N[C@@H](CCC(N)=O)C(=O)N[C@@H](CCC(N)=O)C(=O)N[C@@H](CC(C)C)C(=O)N[C@@H](C)C(=O)N[C@@H](CCCCN)C(=O)N[C@@H](Cc1ccc(O)cc1)C(=O)N[C@@H](Cc1c[nH]c2ccccc12)C(=O)N[C@@H](CCC(=O)O)C(=O)N[C@@H](C)C(=O)N[C@@H](Cc1ccccc1)C(=O)N[C@@H](CC(C)C)C(N)=O)[C@@H](C)O` [cSNX1.3], the “inhibition of cell survival compared with Sapitinib” value with BT20 cells is listed as “more effective than Sapitinib”. The observable toxicity result in series [1] was “without observable toxicity; also recorded: no observable toxicity; also recorded: lack of observable toxicity in normal tissues”. In addition, the “effect on cell viability” value in the series on H1975 cells was “minimal effect”. Besides, the “sensitivity (cell viability)” value in the series on T47D cells is listed as “sensitive”. For the same compound, in series [2], the “nuclear-localized EGFR” value is listed as “inhibits the nuclear localization of EGFR; also recorded: loss of nuclear-localized EGFR”. Also, in the series on CHO cells, the “impact on cell viability / growth” value is given as “almost no impact”. The “binding to the EGFR kinase domain” value in series [3] is “directly bind the EGFR kinase domain”.
